Measurements published in paper PMC3919815, “Anti-Tumor Effects of Novel 5-O-Acyl Plumbagins Based on the Inhibition of Mammalian DNA Replicative Polymerase Activity” (PLoS ONE, 2014).

Tests used:
Assay in all cases: DNA polymerase activity inhibition
Format in all cases: biochemical
Calf pol α = target: T1, Calf pol α (Bos taurus, UniProt A0AAA9TD94); conditions: 0.05 units enzyme; mean ± SD (n = 3)
T1 construct: from tissue; host or cells: calf thymus
Source text: (§1) Pol α was purified from calf thymus by immunoaffinity column chromatography as described by Tamai et al.. Recombinant rat pol β was purified from Escherichia coli JMpβ5 as described by Date et al.. The human pol γ catalytic gene was cloned into pFastBac. Histidine-tagged enzyme was expressed using the BACTO-BAC HT Baculovirus Expression System according to the manufacturer's instructions (Life Technologies, Frederick, MD, USA) and purified using ProBound resin (Invitrogen Japan, Tokyo Japan). Human pols δ and ε were purified by nuclear fractionation of human peripheral blood cancer cells (Molt-4) using the second subunit of pol δ and ε-conjugated affinity column chromatography, respectively. A truncated form of human pol η (residues 1–511) tagged with His6 at its C-terminal was expressed in E. coli cells and purified as described by Kusumoto et al.. A recombinant mouse pol ι tagged with His6 at its C-terminal was expressed and purified by Ni–NTA column chromatography. A truncated form of pol κ (residues 1–560) with 6× His-tags attached at the C-terminus was overexpressed in E. coli and purified as described by Ohashi et al.. Recombinant human His-pol λ was overexpressed and purified according to a method described by Shimazaki et al.. Recombinant human His-pol μ was overexpressed in E. coli BL21 and purified using Glutathione Sepharose 4B (GE Healthcare Bio-Science Corp., Piscataway, NJ, USA) column chromatography according to the method for pol λ preparation by Shimazaki et al.. Pol α from a higher plant, cauliflower, was purified from the inflorescence structure according to the methods outlined by Sakaguchi et al.. Recombinant rice (Oryza sativa L. cv. Nipponbare) pol λ tagged with His6 at the C-terminus was expressed in E. coli and purified as described by Uchiyama et al.. Calf TdT, Taq pol, T4 pol, T7 RNA polymerase, and T4 polynucleotide kinase were purchased from Takara Bio Inc. (Kyoto, Japan). The Klenow fragment of pol I from E. coli was purchased from Worthington Biochemical Corp. (Freehold, NJ, USA). Bovine pancreas deoxyribonuclease I was obtained from Stratagene Cloning Systems (La Jolla, CA, USA).
(§2) The reaction mixtures for calf pol α, rat pol β, plant pol α, and prokaryotic pols have been described previously, [35]; those for pol γ as well as pols δ and ε were previously described by Umeda et al. and Ogawa et al., respectively. Those for pols η, ι, and κ were the same as for pol α, and those for pols λ and μ were the same as for pol β. For the pol reactions, poly(dA)/oligo(dT)18 (A/T, 2/1) and dTTP were used as the DNA template-primer substrate and nucleotide (dNTP; 2′-deoxynucleoside-5′-triphosphate) substrate, respectively. For the TdT reactions, oligo(dT)18 (3′-OH) and dTTP were used as the DNA primer substrate and nucleotide substrate, respectively.
(§3) The chemically synthesized 5-O-acyl plumbagins (2a–j) were dissolved in distilled dimethyl sulfoxide (DMSO) to various concentrations and sonicated for 30 s. Subsequently, 4 µL aliquots were mixed with 16 µL of each enzyme (0.05 units) in 50 mM Tris-HCl at pH 7.5, containing 1 mM dithiothreitol, 50% glycerol (by vol), and 0.1 mM ethylenediaminetetraacetic acid and held at 0°C for 10 min. These inhibitor-enzyme mixtures in 8 µL volumes were next added to 16 µL of enzyme standard reaction mixture and incubated at 37°C for 60 min, except for Taq pol, which was incubated at 74°C for 60 min. Activity without inhibitor was considered 100%, and the relative activity was determined for each inhibitor concentration. One unit of pol activity was defined as the amount of each enzyme that catalyzed the incorporation of 1 nmol dTTP into synthetic DNA template primers in 60 min, at 37°C, and under standard reaction conditions, [35].

Human pol γ = target: T2, Human pol γ (Homo sapiens, UniProt P54098)
T2 construct: His tag; made in house
Source text: as §1, §2, §3

Human pol δ = target: T3, Human pol δ (Homo sapiens, UniProt P28340); conditions: 0.05 units enzyme; mean ± SD (n = 3)
T3 construct: purified by nuclear fractionation of human peripheral blood cancer cells (Molt-4); endogenous in cells; host or cells: Molt-4
Source text: as §1, §2, §3

Human pol ε = target: T4, Human pol ε (Homo sapiens, UniProt Q07864); conditions: 0.05 units enzyme; mean ± SD (n = 3)
T4 construct: purified by nuclear fractionation of human peripheral blood cancer cells (Molt-4); endogenous in cells; host or cells: Molt-4
Source text: as §1, §2, §3

Human pol λ = target: T5, Human pol λ (Homo sapiens, UniProt Q9UGP5); conditions: 0.05 units enzyme; mean ± SD (n = 3)
T5 construct: His tag; made in house
T5 sequence (Q9UGP5 1-575): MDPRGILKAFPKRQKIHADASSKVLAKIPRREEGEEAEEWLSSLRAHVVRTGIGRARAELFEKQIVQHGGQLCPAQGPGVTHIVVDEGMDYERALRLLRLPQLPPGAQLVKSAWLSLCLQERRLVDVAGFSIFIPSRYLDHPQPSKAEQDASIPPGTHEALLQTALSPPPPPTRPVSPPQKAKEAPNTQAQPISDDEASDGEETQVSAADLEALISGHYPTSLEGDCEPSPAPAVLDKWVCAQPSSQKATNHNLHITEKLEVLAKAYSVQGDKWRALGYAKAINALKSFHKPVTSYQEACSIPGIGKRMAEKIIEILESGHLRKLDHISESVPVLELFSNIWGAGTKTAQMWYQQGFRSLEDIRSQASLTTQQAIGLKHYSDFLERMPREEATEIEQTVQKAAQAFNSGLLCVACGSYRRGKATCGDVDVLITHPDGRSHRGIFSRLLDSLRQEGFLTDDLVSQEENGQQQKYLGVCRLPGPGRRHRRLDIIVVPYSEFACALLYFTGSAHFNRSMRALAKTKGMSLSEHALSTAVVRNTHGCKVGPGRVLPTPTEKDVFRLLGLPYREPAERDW
Source text: as §1, §2, §3

Human pol μ = target: T6, Human pol μ (Homo sapiens, UniProt Q9NP87); conditions: 0.05 units enzyme; mean ± SD (n = 3)
T6 construct: His tag; made in house; host or cells: E. coli BL21
Source text: as §1, §2, §3

Mouse pol ι = target: T7, Mouse pol ι (Mus musculus, UniProt Q6R3M4); conditions: 0.05 units enzyme; mean ± SD (n = 3)
T7 construct: His6 (C); made in house
Source text: as §1, §2, §3

Rat pol β = target: T8, Rat pol β (Rattus norvegicus, UniProt P06766); conditions: 0.05 units enzyme; mean ± SD (n = 3)
T8 construct: made in house; host or cells: Escherichia coli JMpβ5
Source text: as §1, §2, §3

T2 sequence (P54098 whole entry): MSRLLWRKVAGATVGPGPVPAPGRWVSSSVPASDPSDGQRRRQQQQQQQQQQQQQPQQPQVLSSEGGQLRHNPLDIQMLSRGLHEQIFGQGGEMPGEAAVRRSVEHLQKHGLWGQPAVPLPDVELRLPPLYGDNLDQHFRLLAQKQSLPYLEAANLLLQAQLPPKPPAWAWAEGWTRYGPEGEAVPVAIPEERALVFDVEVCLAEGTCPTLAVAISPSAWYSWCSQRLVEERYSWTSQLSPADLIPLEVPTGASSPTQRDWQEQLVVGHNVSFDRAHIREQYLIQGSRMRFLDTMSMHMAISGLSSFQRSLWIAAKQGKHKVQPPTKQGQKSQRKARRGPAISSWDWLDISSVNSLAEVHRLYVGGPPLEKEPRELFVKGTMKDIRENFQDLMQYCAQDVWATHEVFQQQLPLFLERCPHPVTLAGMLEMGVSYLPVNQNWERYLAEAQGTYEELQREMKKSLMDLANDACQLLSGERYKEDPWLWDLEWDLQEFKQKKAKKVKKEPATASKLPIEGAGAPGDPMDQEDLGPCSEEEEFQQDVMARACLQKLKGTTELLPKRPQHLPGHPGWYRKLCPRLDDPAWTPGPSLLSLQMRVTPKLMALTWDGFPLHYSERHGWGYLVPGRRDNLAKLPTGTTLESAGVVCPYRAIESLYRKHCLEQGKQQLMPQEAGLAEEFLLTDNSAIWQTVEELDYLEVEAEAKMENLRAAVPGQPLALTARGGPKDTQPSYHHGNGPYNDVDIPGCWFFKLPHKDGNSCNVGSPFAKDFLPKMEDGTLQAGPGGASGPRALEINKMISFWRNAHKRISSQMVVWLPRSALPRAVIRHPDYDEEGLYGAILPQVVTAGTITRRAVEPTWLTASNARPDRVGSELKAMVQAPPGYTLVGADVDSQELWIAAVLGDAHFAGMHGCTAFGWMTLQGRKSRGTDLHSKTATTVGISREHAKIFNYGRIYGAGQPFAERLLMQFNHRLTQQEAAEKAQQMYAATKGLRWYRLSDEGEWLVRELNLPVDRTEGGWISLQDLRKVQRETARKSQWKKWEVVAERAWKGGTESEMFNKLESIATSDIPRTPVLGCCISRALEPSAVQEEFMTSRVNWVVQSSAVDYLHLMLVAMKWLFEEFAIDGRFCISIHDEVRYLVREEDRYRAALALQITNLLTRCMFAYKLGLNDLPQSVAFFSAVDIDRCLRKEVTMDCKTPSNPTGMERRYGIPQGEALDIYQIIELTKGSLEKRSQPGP
T7 sequence (Q6R3M4 whole entry): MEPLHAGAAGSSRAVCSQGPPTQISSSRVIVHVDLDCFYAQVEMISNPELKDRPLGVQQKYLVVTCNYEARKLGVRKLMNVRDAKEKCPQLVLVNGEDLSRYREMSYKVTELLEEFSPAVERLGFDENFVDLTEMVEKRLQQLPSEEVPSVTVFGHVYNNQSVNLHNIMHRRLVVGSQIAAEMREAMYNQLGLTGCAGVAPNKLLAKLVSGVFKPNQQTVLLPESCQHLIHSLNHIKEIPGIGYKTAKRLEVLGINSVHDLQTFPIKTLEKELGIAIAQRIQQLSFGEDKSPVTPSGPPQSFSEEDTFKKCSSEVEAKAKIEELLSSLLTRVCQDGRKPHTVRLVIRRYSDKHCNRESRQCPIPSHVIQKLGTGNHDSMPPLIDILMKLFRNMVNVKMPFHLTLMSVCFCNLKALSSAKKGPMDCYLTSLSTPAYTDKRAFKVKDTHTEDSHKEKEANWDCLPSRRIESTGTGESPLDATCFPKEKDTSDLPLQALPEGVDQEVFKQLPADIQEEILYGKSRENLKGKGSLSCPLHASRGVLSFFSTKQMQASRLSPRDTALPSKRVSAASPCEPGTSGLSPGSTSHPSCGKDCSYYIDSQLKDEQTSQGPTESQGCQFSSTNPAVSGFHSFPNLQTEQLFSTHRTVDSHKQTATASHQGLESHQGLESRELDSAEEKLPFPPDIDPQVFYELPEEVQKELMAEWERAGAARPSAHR
T4 sequence (Q07864 whole entry): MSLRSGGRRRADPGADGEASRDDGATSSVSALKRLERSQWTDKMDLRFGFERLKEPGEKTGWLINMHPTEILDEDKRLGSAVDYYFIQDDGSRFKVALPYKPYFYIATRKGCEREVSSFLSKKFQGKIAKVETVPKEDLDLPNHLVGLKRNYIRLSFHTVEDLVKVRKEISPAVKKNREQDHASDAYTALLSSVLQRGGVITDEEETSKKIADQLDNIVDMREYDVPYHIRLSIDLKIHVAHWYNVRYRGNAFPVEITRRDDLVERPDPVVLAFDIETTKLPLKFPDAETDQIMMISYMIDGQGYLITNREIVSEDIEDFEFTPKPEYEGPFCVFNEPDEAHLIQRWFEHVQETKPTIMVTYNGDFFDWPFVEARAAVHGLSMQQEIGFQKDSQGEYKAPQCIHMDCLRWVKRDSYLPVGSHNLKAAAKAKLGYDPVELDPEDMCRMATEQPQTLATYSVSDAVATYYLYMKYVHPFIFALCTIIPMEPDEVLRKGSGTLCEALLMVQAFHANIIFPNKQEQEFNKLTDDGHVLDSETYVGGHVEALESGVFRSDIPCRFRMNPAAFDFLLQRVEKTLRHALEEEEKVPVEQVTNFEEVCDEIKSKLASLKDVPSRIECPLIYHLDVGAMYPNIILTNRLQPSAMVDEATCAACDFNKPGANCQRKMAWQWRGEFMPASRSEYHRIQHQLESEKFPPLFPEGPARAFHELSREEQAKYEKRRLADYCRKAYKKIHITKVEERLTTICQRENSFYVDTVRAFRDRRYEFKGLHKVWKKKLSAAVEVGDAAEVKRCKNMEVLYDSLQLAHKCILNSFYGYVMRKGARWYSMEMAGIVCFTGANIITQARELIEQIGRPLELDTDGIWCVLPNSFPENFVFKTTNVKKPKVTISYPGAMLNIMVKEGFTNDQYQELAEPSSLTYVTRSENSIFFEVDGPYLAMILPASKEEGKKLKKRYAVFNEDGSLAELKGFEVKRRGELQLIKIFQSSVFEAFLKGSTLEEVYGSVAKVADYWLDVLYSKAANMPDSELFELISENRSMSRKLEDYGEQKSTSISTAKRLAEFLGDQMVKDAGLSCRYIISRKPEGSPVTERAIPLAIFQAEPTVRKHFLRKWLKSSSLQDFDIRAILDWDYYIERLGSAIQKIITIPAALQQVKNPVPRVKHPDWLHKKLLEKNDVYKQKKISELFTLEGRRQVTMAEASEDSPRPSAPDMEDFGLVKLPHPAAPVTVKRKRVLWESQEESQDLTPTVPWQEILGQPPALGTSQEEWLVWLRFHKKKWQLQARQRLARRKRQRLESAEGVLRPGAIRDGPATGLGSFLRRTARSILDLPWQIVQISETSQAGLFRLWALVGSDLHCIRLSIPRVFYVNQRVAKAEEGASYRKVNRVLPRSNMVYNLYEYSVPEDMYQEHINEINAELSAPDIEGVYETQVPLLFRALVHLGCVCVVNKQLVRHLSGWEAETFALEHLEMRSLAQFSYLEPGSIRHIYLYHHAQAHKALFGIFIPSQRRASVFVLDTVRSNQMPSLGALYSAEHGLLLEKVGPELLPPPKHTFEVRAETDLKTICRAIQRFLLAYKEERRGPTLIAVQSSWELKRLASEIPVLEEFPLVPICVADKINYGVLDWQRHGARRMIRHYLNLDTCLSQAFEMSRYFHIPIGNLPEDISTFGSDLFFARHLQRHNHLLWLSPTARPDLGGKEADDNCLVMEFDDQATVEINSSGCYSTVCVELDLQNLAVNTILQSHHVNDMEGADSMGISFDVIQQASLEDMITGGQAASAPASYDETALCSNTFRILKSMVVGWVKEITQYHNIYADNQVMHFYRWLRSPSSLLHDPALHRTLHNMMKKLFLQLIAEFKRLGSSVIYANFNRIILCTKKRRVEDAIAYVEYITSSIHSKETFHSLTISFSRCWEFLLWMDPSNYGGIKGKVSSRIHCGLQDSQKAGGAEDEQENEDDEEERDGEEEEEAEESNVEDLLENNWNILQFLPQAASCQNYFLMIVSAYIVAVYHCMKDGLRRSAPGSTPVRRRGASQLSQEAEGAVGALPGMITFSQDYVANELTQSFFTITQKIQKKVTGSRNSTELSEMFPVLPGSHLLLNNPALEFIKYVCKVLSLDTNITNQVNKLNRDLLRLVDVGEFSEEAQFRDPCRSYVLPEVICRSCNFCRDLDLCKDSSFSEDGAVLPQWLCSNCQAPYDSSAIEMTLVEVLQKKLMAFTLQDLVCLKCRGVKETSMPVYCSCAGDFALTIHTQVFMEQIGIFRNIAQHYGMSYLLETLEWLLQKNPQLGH
T6 sequence (Q9NP87 whole entry): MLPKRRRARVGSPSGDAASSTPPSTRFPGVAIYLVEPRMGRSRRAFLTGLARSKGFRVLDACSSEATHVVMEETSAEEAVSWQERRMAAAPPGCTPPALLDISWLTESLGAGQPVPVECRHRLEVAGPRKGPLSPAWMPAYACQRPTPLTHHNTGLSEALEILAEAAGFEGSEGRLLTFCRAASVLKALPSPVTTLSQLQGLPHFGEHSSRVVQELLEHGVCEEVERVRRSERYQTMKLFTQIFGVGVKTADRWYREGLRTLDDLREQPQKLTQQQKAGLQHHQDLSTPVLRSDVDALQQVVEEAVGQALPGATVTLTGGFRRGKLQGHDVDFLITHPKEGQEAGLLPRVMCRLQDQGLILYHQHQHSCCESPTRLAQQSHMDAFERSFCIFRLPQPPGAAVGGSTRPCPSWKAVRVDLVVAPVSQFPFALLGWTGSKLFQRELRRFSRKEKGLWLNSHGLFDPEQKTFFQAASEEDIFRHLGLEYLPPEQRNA

CCCCCCCC/C=C\CCCCCCCC(=O)Oc1cccc2c1C(=O)C=C(C)C2=O [2f, 5-O-oleoyl-2-methyl-1,4-naphthoquinone]
IC50 (Calf pol α): 4.8 ± 0.38 µM
inhibition of pol γ relative activity (in words) (Human pol γ; 10 µM compound, Fig. 4): strongest inhibition
IC50 (Human pol γ; 0.05 units enzyme, mean ± SD (n = 3)): 4.5 ± 0.4 µM
IC50 (Human pol δ): 5.3 ± 0.41 µM
IC50 (Human pol ε): 4.9 ± 0.4 µM
IC50 (Human pol λ): 9.2 ± 0.43 µM
IC50 (Human pol μ): 9.5 ± 0.48 µM
IC50 (Mouse pol ι): 8.2 ± 0.43 µM
IC50 (Rat pol β): 10.3 ± 0.46 µM
